In patent US11753373B2, “Protease inhibitors as antivirals” (priority 2021, dated 2023):
Where two headings read alike, the source gives them in different places.

Tests used:
[1] = type: in vitro ADME, Human; details: extraction ratio, compound at 1 uM, human liver microsomes 0.5 mg/mL
Procedure: (§1) Metabolic stability of novel protease inhibitors was determined via liver microsomal stability assay. Human, mouse, SD rat, beagle dog or monkey liver microsomes were incubated with the test compound for 5 to 60 minutes at 37° C., and then the remaining parent compound was quantified by LC-MS/MS. Percentage of the test compound remaining, half-life (t1/2), in vitro intrinsic clearance (CLint, in vitro), in vivo intrinsic clearance (CLint, in vivo), hepatic clearance (CLh) and extraction ratio (ER) were calculated.
(§2) Procedure: The assay was done as described in Baranczewski, P. et al. (2006) Pharmacological Reports 58:453-472; Pearson, P. and Wienkers, L. (2008) Handbook of Drug Metabolism, 2nd Edition. CRC Pres, P.478; and Venkatesh, P. et al. (2007) Biol. Pharm. Bull. 30:1021-2024. 0.625 mg/mL liver microsomes solution was prepared by mixing 2325 μL 100 mM of K-phosphate buffer (pH 7.4) containing 2.5 mM of MgCl2, 1.25 mM of EDTA, and 75 μL microsomes (20 mg/mL) in a vial for each species.
(§3) Positive control compound: (±) Verapamil hydrochloride (Cat No.: V4629; Lot No.: MKBV4993V; Source: Sigma)
(§4) 40 μL aliquots of the liver microsome/test compound mixture were dispensed into 96-well plate in triplicate and pre-warmed the mixture for 5 minutes at 37° C. Then, 10 μL of 5 mM NADPH solution was added to each well to initiate the reaction, and gently mixed. The samples were incubated at 37° C. with gentle shaking.
(§5) For 0-min samples, 200 μL of ACN containing internal standard was added to 40 μL of liver microsome/test compound mixture, followed by addition of 5 mM NADPH, and mixed gently.
(§6) For negative control: 40 μL of liver microsome/test compound mixture was incubated at 37° C. with gentle shaking for 60 minutes, followed by addition of 200 μL ACN containing 1% FA and internal standard and 10 μL of 5 mM NADPH, mixed gently.
(§7) All samples were centrifuged at 4° C. for 20 minutes at 4,000 rpm. Then, 100 μL of the supernatant from each sample was transferred to a new 96-well plate and 100 μL of ultrapure water containing 1% FA was added to each well, and mixed gently. Samples were analyzed by LC-MS/MS.
(§8) Data Analysis: Peak area ratio (Peak Area of test compound/Peak Area of internal standard) was used to represent the concentration of compound in each sample. The remaining percentage (% Remaining) at appointed time points was calculated versus the concentration of compound at 0 min. The Ln value of the remaining percentage was linearly fitted against the incubation time.
(§9) The half-life and clearance were calculated using the following equations:
(§10) Determined percent of the remaining test compound: % remaining=[area at tx/average areas at t0]×100 (1) % metabolized=[100−% remaining] (2)
(§11) Calculated the half-life (t1/2) using the slope (k) of the log-linear regression from the concentration of remaining parent compound versus time (min) relationship: t1/2 (min)=−ln 2/k. (3)
(§12) Clint, in vitro (mL/min/mg) Clint,in vitro=k/c,(c:Liver microsome concentration in the incubation system) (4)
(§13) Hepatic Clearance (CLh) CLh=Clint,in vivo*Hepatic Blood Flow (mL/min/kg)/(Hepatic Blood Flow (mL/min/kg)+Clint,in vivo) (6)
(§14) Extraction ratio (ER): ER=CLint,in vivo/(Qh+CLint,in vivo)*100,Qh:liver blood flow (7)

[2] = molecular target: SARS-CoV-2 M^pro (3CL protease) (Severe acute respiratory syndrome coronavirus 2 (2019-nCoV) (SARS-CoV-2), UniProt P0DTD1); type: biochemical; details: read-out: SARS-CoV-2M^pro inhibition IC50
[3] = type: in vitro ADME; details: extraction ratio, compound at 1 uM; for Liver Microsomal Stability (ER) SD rat: SD rat liver microsomes 0.5 mg/mL; for Liver Microsomal Stability (ER) Beagle dog: beagle dog liver microsomes 0.5 mg/mL; for Liver Microsomal Stability (ER) Monkey: monkey liver microsomes 0.5 mg/mL; for Liver Microsomal Stability (ER) Mouse: mouse liver microsomes 0.5 mg/mL
Procedure: as §1, §2, §3
as §4, with “shaking. (Final concentrations: compound=1 μM; liver microsomes protein=0.5 mg/mL; MgCl2=2 mM; EDTA=1 mM; ACN=0.1%; DMSO=0.05%).” for “shaking.”
as §5, §6, §7, §8, §9, §10, §11, §12, §13, §14

[4] = wild type Mpro 17 nM, substrate 40 uM

| Structure (SMILES) | Liver Microsomal Stability (ER) Human [1] | IC50 [2] | Liver Microsomal Stability (ER) SD rat [3] | Liver Microsomal Stability (ER) Beagle dog [3] | Liver Microsomal Stability (ER) Monkey [3] | Liver Microsomal Stability (ER) Mouse [3] | IC50 [2, 4] |
| --- | --- | --- | --- | --- | --- | --- | --- |
| Cc1cccc2[nH]c(C(=O)N[C@@H](CC(C)C)C(=O)N[C@@H](C[C@@H]3CCNC3=O)C(=O)CCl)cc12 [Compound A-4-c, (2S)—N-[(2S)-4-chloro-3-oxo-1-[(3S)-2-oxopyrrolidin-3-yl]butan-2-yl]-4-methyl-2-[(4-methyl-1H-indol-2-yl)formamido]pentanamide] | 0.67 | 1120 nM | 0.70 | 0.72 | 0.69 | 0.81 |  |
| COc1cccc2[nH]c(C(=O)N[C@@H](CC(C)C)C(=O)N[C@@H](C[C@@H]3CCNC3=O)C(=O)CCl)cc12 [Compound A-5-c, (2S)—N-[(2S)-4-chloro-3-oxo-1-[(3S)-2-oxopyrrolidin-3-yl]butan-2-yl]-2-[(4-methoxy-1H-indol-2-yl)formamido]-4-methylpentanamide] | 0.89 | 359 nM | 0.74 | 0.80 | 0.79 | 0.84 |  |
| CC1(C)[C@@H]2[C@@H](C(=O)N[C@H](C#N)C[C@@H]3CCNC3=O)N(C(=O)[C@@H](NC(=O)C(F)(F)F)C3CC3)C[C@@H]21 [Compound D-2-a] | 0.05 |  | 0.03 | −0.04 |  | 0.13 | 24 nM |
| CC(C)C(=O)N[C@H](C(=O)N1C[C@H]2[C@@H]([C@H]1C(=O)N[C@H](C#N)C[C@@H]1CCNC1=O)C2(C)C)C1CC1 [Compound D-2-b] | 0.08 |  | 0.00 | 0.06 |  | 0.10 | 42.5 nM |
| CC1(C)[C@@H]2[C@@H](C(=O)N[C@H](C#N)C[C@@H]3CCNC3=O)N(C(=O)[C@@H](NC(=O)C(F)F)C3CC3)C[C@@H]21 [Compound D-2-d] | 0.03 |  | 0.05 | 0.05 |  | 0.18 | 58.7 nM |
| CC1(C)[C@@H]2[C@@H](C(=O)N[C@H](C#N)C[C@@H]3CCCNC3=O)N(C(=O)[C@@H](NC(=O)C(F)F)C3CC3)C[C@@H]21 [Compound D-2-e] | 0.09 |  | 0.04 | −0.03 |  | 0.17 | 7.02 nM |
| CC(C)C[C@H](NC(=O)c1cc2ccccc2[nH]1)C(=O)N1C[C@H]2[C@@H]([C@H]1C(=O)N[C@H](C#N)C[C@@H]1CCNC1=O)C2(C)C [Compound G-1-b] | 0.38 |  | 0.33 | 0.33 | 0.51 | 0.16 | 377 nM |
| CC(C)C[C@H](NC(=O)c1cc2ccccc2[nH]1)C(=O)N1C[C@H]2[C@@H]([C@H]1C(=O)N[C@@H](C#N)C[C@@H]1CCNC1=O)C2(C)C [Compound G-1-c] | 0.67 |  | 0.30 | 0.30 | 0.58 | 0.27 | 964 nM |
| CC(C)C[C@H](NC(=O)c1cc2ccccc2[nH]1)C(=O)N1C[C@H]2[C@@H]([C@H]1C(=O)N[C@@H](C[C@@H]1CCNC1=O)C(=O)CCl)C2(C)C [Compound G-1-d, N-[(2S)-1-[(1R,2S,5S)-2-{[(2S)-4-chloro-3-oxo-1-[(3S)-2-oxopyrrolidin-3-yl]butan-2-yl]carbamoyl}-1,5-dihydrogenio-6,6-dimethyl-3-azabicyclo[3.1.0]hexan-3-yl]-4-methyl-1-oxopentan-2-yl]-1H-indole-2-carboxamide] | 0.83 | 968 nM | 0.78 | 0.81 | 0.92 | 0.59 |  |
| CC(C)C[C@H](NC(=O)c1cc2ccccc2[nH]1)C(=O)N1C[C@H]2[C@@H]([C@H]1C(=O)N[C@@H](C[C@@H]1CCNC1=O)C(=O)CO)C2(C)C [Compound G-1-e] | 0.17 |  | 0.07 | 0.07 |  | 0.25 | 57.9 nM |
| CC(C)C[C@H](NC(=O)c1cc2ccccc2[nH]1)C(=O)N1C[C@H]2[C@@H]([C@H]1C(=O)N[C@H](C=O)C(C)C)C2(C)C [Compound G-2-a] | 0.54 |  | 0.53 | 0.56 | 0.48 | 0.16 | > 2000 nM |
| CC(C)C[C@H](NC(=O)c1cc2ccccc2[nH]1)C(=O)N1C[C@H]2[C@@H]([C@H]1C(=O)N[C@H](C(=O)CCl)C(C)C)C2(C)C [Compound G-2-c] | 0.85 |  | 0.79 | 0.84 |  | 0.92 | > 2000 nM |
| CC(C)C[C@H](NC(=O)c1cc2ccccc2[nH]1)C(=O)N1C[C@H]2[C@@H]([C@H]1C(=O)N[C@H](C=O)C(C)(C)C)C2(C)C [Compound G-3-a] | 0.70 |  | 0.54 | 0.62 |  | 0.78 | > 10000 nM |
| CC(C)C[C@H](NC(=O)C(F)(F)F)C(=O)N1C[C@H]2[C@@H]([C@H]1C(=O)N[C@H](C#N)C[C@@H]1CCNC1=O)C2(C)C [Compound H-1-c] | 0.15 |  | 0.06 | 0.02 |  | 0.44 | 36.7 nM |
| CC(C)C[C@H](NC(=O)C(C)C)C(=O)N1C[C@H]2[C@@H]([C@H]1C(=O)N[C@H](C#N)C[C@@H]1CCNC1=O)C2(C)C [Compound H-1-e] | 0.05 |  | 0.06 | 0.05 |  | 0.31 | 43.3 nM |
| CC(C)C(=O)N[C@H](C(=O)N1C[C@H]2[C@@H]([C@H]1C(=O)N[C@@H](C[C@@H]1CCNC1=O)C(N)=O)C2(C)C)C(C)(C)C [Compound H-2-b] | 0.18 |  | 0.37 | 0.06 |  | 0.37 | 6.6 nM |
